Values joined by “and” are separate entries in the source; they are usually repeats but may differ in a detail not shown here. Identical values can stand only once. Active and inactive are the calls of the source. No rule for the calls is given here.
Test system: rodent lifetime carcinogenesis bioassay, tumor incidence TD50
Assay: carcinogenic potency in animals, long-term in vivo studies, CPDB compilation (AID 1745844)
Details: in feed

## COP(=O)(OC)OC(=CCl)c1cc(Cl)c(Cl)cc1Cl
mouse, strain B6C3F1, females, site: any site (literature study), lesion: several types, types named in the paper, dosed 80 weeks, study length 92 weeks
  TD50: 7880 mg/kg/day
mouse, strain B6C3F1, females, site: kidney, lesion: several types, types named in the paper, dosed 103 weeks, study length 103 weeks
  TD50: 32100 mg/kg/day
mouse, strain B6C3F1, females, site: liver, lesion: hepatocellular adenoma + hepatocellular carcinoma + neoplastic nodule, dosed 80 weeks, study length 92 weeks
  TD50: 905 mg/kg/day
mouse, strain B6C3F1, females, site: liver, lesion: hepatocellular carcinoma + neoplastic nodule, dosed 80 weeks, study length 90 weeks
  TD50: 1070 mg/kg/day
mouse, strain B6C3F1, females, site: liver, lesion: hepatocellular carcinoma + neoplastic nodule, dosed 80 weeks, study length 92 weeks
  TD50: 905 mg/kg/day
mouse, strain B6C3F1, females, site: liver, lesion: hepatocellular carcinoma, dosed 103 weeks, study length 103 weeks
  TD50: 12400 mg/kg/day and 8990 mg/kg/day
mouse, strain B6C3F1, females, site: liver, lesion: neoplastic nodule, dosed 80 weeks, study length 90 weeks
  TD50: 1380 mg/kg/day
mouse, strain B6C3F1, females, site: liver, lesion: several types, types named in the paper, dosed 103 weeks, study length 103 weeks
  TD50: 10200 mg/kg/day and 6330 mg/kg/day
mouse, strain B6C3F1, females, site: lung, lesion: alveolar/bronchiolar adenoma + alveolar/bronchiolar carcinoma, dosed 80 weeks, study length 92 weeks
  TD50: 7790 mg/kg/day
mouse, strain B6C3F1, males, site: any site (literature study), lesion: several types, types named in the paper, dosed 80 weeks, study length 92 weeks
  TD50: 295 mg/kg/day
mouse, strain B6C3F1, males, site: kidney, lesion: several types, types named in the paper, dosed 103 weeks, study length 103 weeks
  TD50: 4420 mg/kg/day
mouse, strain B6C3F1, males, site: kidney, lesion: tubular adenoma, dosed 103 weeks, study length 103 weeks
  TD50: 37600 mg/kg/day
mouse, strain B6C3F1, males, site: kidney, lesion: tubular carcinoma, dosed 103 weeks, study length 103 weeks
  TD50: 5260 mg/kg/day
mouse, strain B6C3F1, males, site: liver, lesion: hepatocellular adenoma + hepatocellular carcinoma + neoplastic nodule, dosed 80 weeks, study length 92 weeks
  TD50: 228 mg/kg/day
mouse, strain B6C3F1, males, site: liver, lesion: hepatocellular adenoma, dosed 103 weeks, study length 103 weeks
  TD50: 18300 mg/kg/day
mouse, strain B6C3F1, males, site: liver, lesion: hepatocellular carcinoma + neoplastic nodule, dosed 80 weeks, study length 90 weeks
  TD50: 280 mg/kg/day
mouse, strain B6C3F1, males, site: liver, lesion: hepatocellular carcinoma + neoplastic nodule, dosed 80 weeks, study length 92 weeks
  TD50: 228 mg/kg/day
mouse, strain B6C3F1, males, site: liver, lesion: hepatocellular carcinoma, dosed 80 weeks, study length 90 weeks
  TD50: 534 mg/kg/day
mouse, strain B6C3F1, males, site: liver, lesion: hepatocellular carcinoma, dosed 80 weeks, study length 92 weeks
  TD50: 466 mg/kg/day
mouse, strain B6C3F1, males, site: liver, lesion: hepatocellular carcinoma, dosed 103 weeks, study length 103 weeks
  TD50: 1530 mg/kg/day
mouse, strain B6C3F1, males, site: liver, lesion: neoplastic nodule, dosed 80 weeks, study length 90 weeks
  TD50: 1770 mg/kg/day
mouse, strain B6C3F1, males, site: liver, lesion: several types, types named in the paper, dosed 103 weeks, study length 103 weeks
  TD50: 1150 mg/kg/day
mouse, strain B6C3F1, males, site: lung, lesion: alveolar/bronchiolar adenoma + alveolar/bronchiolar carcinoma, dosed 80 weeks, study length 92 weeks
  TD50: 401000 mg/kg/day
rat, strain Osborne-Mendel, females, site: adrenal gland, lesion: cortical adenoma, dosed 80 weeks, study length 109 weeks
  TD50: 2280 mg/kg/day
rat, strain Osborne-Mendel, females, site: pituitary gland, lesion: chromophobe adenoma, dosed 80 weeks, study length 111 weeks
  TD50: 1580 mg/kg/day (inactive)
rat, strain Osborne-Mendel, females, site: thyroid gland, lesion: c-cell adenoma, dosed 80 weeks, study length 109 weeks
  TD50: 1920 mg/kg/day
rat, strain Osborne-Mendel, males, site: any site (literature study), lesion: several types, types named in the paper, dosed 80 weeks, study length 111 weeks
  carcinogen call: negative (inactive)

From PubChem BioAssay AID1745844 (Carcinogenic Potency Database (CPDB), 2022)
